Measured values as given in patent US7781423B2, “Compounds to promote regeneration of bone marrow” (priority 2007, dated 2010).
Read-outs that look alike come from different tables or passages of the source.

Tests used:
[1] = test system: NIH 3T3, A431, MCF-7, MEL-28, HT-29, A549, T47D, CaOV-3, ZR-75-1, HTB-157, MEL-24, Hep G2, CaCO-2, MB-231 cells; experiment: MTT survival/proliferation experiments on the panel of normal and cancer cells; type: cell-based, human, mouse; conditions: serum-free (survival) or 2% serum (proliferation); 72 hours; lower and higher (50 μM) concentration
Experimental: (§1) The NIH 3T3 (normal) mouse fibroblast, A431 human epidermoid adenocarcinoma, and MCF-7 human breast cancer cells were cultured in DMEM medium containing 10% FBS. The MEL-28 human melanoma cells were cultured in MEM medium containing 10% FBS. The HT-29 human colon adenocarcinoma cells were cultured in McCoy's 5a medium containing 10% FBS. The A549 human lung carcinoma cells were maintained in Ham's F12K medium containing 10% FBS. T47D cells were cultured in 12-well plates in RPMI 1640 medium supplemented with 0.2 IU bovine insulin and 10% FBS. CaOV-3 human ovarian cancer cells were cultured in DMEM containing 10% FBS. ZR-75-1 human estrogen receptor-positive breast cancer cells were maintained in RPMI 1640 medium supplemented with 10% FBS. HTB-157 human fetal fibroblasts, MEL-24 human malignant melanoma cells, Hep G2 human hepatoblastoma cells, and CaCO-2 human colon adenocarcinoma cells were maintained in Eagles's MEM containing 10% FBS. MB-231 human estrogen receptor-negative breast cancer cells were maintained in Leibovitz's L-15 medium supplemented with 10% FBS.
In the actual experiments, cells were seeded into 96-well plates and cultivated up to either ˜70-90% confluency (survival experiments) or 20-25% confluency (proliferation experiments). Then the medium was changed for serum-free medium (survival experiment) or 2% serum-containing medium (proliferation experiment). […]

MXT mammary tumor = type: in vivo; conditions: MXT tumor-bearing, CP-treated mice, by day 22
Experimental: This experiment was designed to determine whether in a tumor model CC compounds could prevent cyclophosphamide-induced loss of body weight resulting from the depression of blood marrow function. Specified pathogen free (SPF) hygienic category colonies of first generation hybrid BDF1 (C57B1 female×DBA/2 male) adult female mice, weighing 23-24 g, were used. The animals were kept in macrolon cages at 22-24° C. (45-55% humidity), with a lighting regimen of 12/12 h light/dark. […] The animals used in these studies were cared for according to the “Guiding Principles for the Care and Use of Animals” based upon the Helsinki declaration.
MXT mammary tumor pieces (containing about 10^6 tumor cells) were implanted subcutaneously to develop the tumors. After six days when the tumor-bearing mice were first treated, the sizes of the tumors were in the 0.26-0.30 cm^3 range. All compounds used were dissolved in 0.9% sodium chloride and applied subcutaneously (CC compounds) or intraperitoneally (CP) in 50 μl volume. Tumor volume was determined by using calipers in three dimensions; this technique is well known to one having ordinary skill in the art. Tumor volume was calculated according to the generally accepted formula: V=a^2×b×π/6, where “a” and “b” mean the shortest and longest diameter, respectively, of the measured tumor.
In the first group, animals received no treatment. In the second group, mice were administered 120-mg/kg of CP on day 6 followed by seven consecutive daily treatments with the same dose. In the third group, each treatment with CP was associated with administration of 4.5-mg/kg of CCompound1. In the fourth group, each treatment with CP was associated with administration of 4.5-mg/kg of CCompound3. In the fifth group, each treatment with CP was associated with administration of 2.0-mg/kg of CCompound26. Each group included 7 mice. All data represent the average of 7 determinations (one determination with each mouse in the group).

MTT cell viability assay = type: cell-based; conditions: human, read-out: decrease of viability
Experimental: as §1
In the actual experiments, cells were seeded into 96-well plates and cultivated up to either ˜70-90% confluency (survival experiments) or 20-25% confluency (proliferation experiments). Then the medium was changed for serum-free medium (survival experiment) or 2% serum-containing medium (proliferation experiment). The incubation continued for 72 hours followed by the MTT assay to determine cell viability. This calorimetric assay is based on the ability of living cells, but not dead cells, to reduce 3-(4,5-dimethyl thiazol-2-yl)-2,5-diphenyltetrazolium bromide. Carmichael, J, De Graff, W. G., Gazdar, A. F., Minna, J. D. and Mitchell, J. B., “Evaluation of tetrazolium-based semiautomated calorimetric assay: Assessment of chemosensitivity testing,” Cancer Res., 47, 936-942 (1987).

Q: Which results are given for `Cc1c(OCC(O)C[N+](C)(C)C)cc2c(=O)c3ccccc3sc2c1C.[Cl-]` (stereo not drawn) [CCcompound1, [3-(3,4-Dimethyl-9-oxo-9H-thioxanthen-2-yloxy)-2-hydroxypropyl]trimethyl-ammonium chloride]?
A: enhancement of survival or proliferation [1]: Neither the lower nor the higher concentration of CCompound1 enhanced the survival or proliferation; effect on body weight (MXT mammary tumor): body weight gain; cytotoxicity at 72 h, 50 μM (MTT cell viability assay; CaOV-3 ovarian cancer cells): 20 to 40%; cytotoxicity at 72 h, 50 μM (MTT cell viability assay; Hep G2 hepatoblastoma cells): 20 to 40%; cytotoxicity at 72 h, 50 μM (MTT cell viability assay; MEL-28 melanoma cells): 20 to 40%; cytotoxicity at 72 h, 50 μM (MTT cell viability assay; ZR-75-1 estrogen receptor-positive breast cancer cells): 20 to 40%
